Experimental data from patent publication US12114661B2, “Synergistically effective herbicide composition comprising metobromuron and clomazone” (BELCHIM CROP PROTECTION NV, priority 2018, dated 2024).

How the values were obtained:
[1] = system: Convolvolus arvensis; assay: Example 1 field trial, herbicidal effect, tank mixture; type: in vivo; settings: 28 DAA
[2] = system: Hibiscus trionum; assay: as above; type: in vivo; settings: 28 DAA
[3] = system: Setaria viridis; assay: as above; type: in vivo; settings: 28 DAA
[4] = system: Amaranthus retroflexus; assay: as above; type: in vivo; settings: 49 DAA
[5] = system: Echinochloa; assay: as above; type: in vivo; settings: 29 DAA
[6] = system: Chenopodium album (CHEAL); assay: Example 2 field trial, herbicidal effect, tank mixture; type: in vivo; settings: 42-56 DAA
[7] = system: Senecio vulgaris (SENVU); assay: as above; type: in vivo; settings: 42-56 DAA
[8] = system: Chenopodium album (CHEAL); assay: Example 3 field trial, herbicidal effect, tank mixture; type: in vivo; settings: 42-56 DAA
[9] = system: Merculiaris annua (MERAN); assay: as above; type: in vivo; settings: 42-56 DAA
[10] = system: Veronica sp. (VERSS); assay: as above; type: in vivo; settings: 42-56 DAA
[11] = system: Convolvolus arvensis; assay: Example 4 field trial, herbicidal effect, ready-to-use formulation; type: in vivo; settings: 44 DAA
[12] = system: Cypurus; assay: as above; type: in vivo; settings: 35 DAA
[13] = system: Solanum nigrum; assay: as above; type: in vivo; settings: 35 DAA
[14] = system: Persicaria maculosa; assay: as above; type: in vivo; settings: 35 DAA
[15] = system: Echinochloa crus galli; assay: as above; type: in vivo; settings: 35 DAA
[16] = system: Urtica urens; assay: as above; type: in vivo; settings: 22 DAA
[17] = system: Veronica persica; assay: as above; type: in vivo; settings: 55 DAA
[18] = system: Chenopodium album; assay: Example 5 field trial, herbicidal effect, ready-to-use formulation; type: in vivo; settings: 41 DAA
[19] = system: Galium aparine; assay: as above; type: in vivo; settings: 25 DAA
[20] = system: Amaranthus retroflexus; assay: as above; type: in vivo; settings: 25 DAA
[21] = system: Merculiaris annua; assay: as above; type: in vivo; settings: 41 DAA
[22] = system: Polygonum aviculare; assay: as above; type: in vivo; settings: 38 DAA
[23] = system: Solanum physalifolium; assay: as above; type: in vivo; settings: 38 DAA
[24] = system: Persicaria maculate; assay: as above; type: in vivo; settings: 28 DAA
[25] = system: Amaranthus retroflexus; assay: Example 6 field trial, herbicidal effect, ready-to-use formulation; type: in vivo; settings: 18 DAA
[26] = system: Merculiaris annua; assay: as above; type: in vivo; settings: 18 DAA
[27] = system: Persicaria laphatipholium; assay: as above; type: in vivo; settings: 25 DAA
[28] = system: Solanum nigrum; assay: as above; type: in vivo; settings: 18 DAA
[29] = system: Panonicum ulmi; assay: as above; type: in vivo; settings: CLZ 72 g a.c./ha; 42 DAA
[30] = as above; type: in vivo, Panonicum ulmi; settings: MTB 1200 g a.c./ha; 42 DAA

## CC1(C)CON(Cc2ccccc2Cl)C1=O [CLZ, 2-(2-chlorophenyl)methyl-4,4-dimethyl-3-isoxazolidinone]
[1]; CLZ 72 g a.c./ha
  h.e. (herbicidal effect): 46%
[2]; CLZ 72 g a.c./ha
  h.e. (herbicidal effect): 79%
[3]; CLZ 72 g a.c./ha
  h.e. (herbicidal effect): 86%
[4]; CLZ 72 g a.c./ha
  h.e. (herbicidal effect): 10%
[5]; CLZ 72 g a.c./ha
  h.e. (herbicidal effect): 57%
[6]; CLZ 45 g a.c./ha
  CLZ h.e.: 6%
[6]; CLZ 67.5 g a.c./ha
  CLZ h.e.: 43%
[6]; CLZ 90 g a.c./ha
  CLZ h.e.: 53%
[7]; CLZ 45 g a.c./ha
  CLZ h.e.: 5%
[7]; CLZ 67.5 g a.c./ha
  CLZ h.e.: 40%
[7]; CLZ 90 g a.c./ha
  CLZ h.e.: 39%
[8]; CLZ 54 g a.c./ha
  CLZ h.e.: 46.7%
[8]; CLZ 72 g a.c./ha
  CLZ h.e.: 56.7%
[8]; CLZ 90 g a.c./ha
  CLZ h.e.: 63.3%
[9]; CLZ 54 g a.c./ha
  CLZ h.e.: 43.3%
[9]; CLZ 72 g a.c./ha
  CLZ h.e.: 50%
[9]; CLZ 90 g a.c./ha
  CLZ h.e.: 23.3%
[10]; CLZ 54 g a.c./ha
  CLZ h.e.: 43.3%
[10]; CLZ 72 g a.c./ha
  CLZ h.e.: 60%
[10]; CLZ 90 g a.c./ha
  CLZ h.e.: 16.7%
[11]; CLZ 36 g a.c./ha
  h.e. (herbicidal effect): 30%
[12]; CLZ 36 g a.c./ha
  h.e. (herbicidal effect): 67%
[13]; CLZ 36 g a.c./ha
  h.e. (herbicidal effect): 52%
[14]; CLZ 36 g a.c./ha
  h.e. (herbicidal effect): 28%
[15]; CLZ 36 g a.c./ha
  h.e. (herbicidal effect): 63%
[16]; CLZ 36 g a.c./ha
  h.e. (herbicidal effect): 0%
[17]; CLZ 36 g a.c./ha
  h.e. (herbicidal effect): 0%
[18]; CLZ 90 g a.c./ha
  h.e. (herbicidal effect): 28%
[19]; CLZ 90 g a.c./ha
  h.e. (herbicidal effect): 33%
[20]; CLZ 90 g a.c./ha
  h.e. (herbicidal effect): 10%
[21]; CLZ 90 g a.c./ha
  h.e. (herbicidal effect): 50%
[22]; CLZ 90 g a.c./ha
  h.e. (herbicidal effect): 78%
[23]; CLZ 90 g a.c./ha
  h.e. (herbicidal effect): 61%
[24]; CLZ 90 g a.c./ha
  h.e. (herbicidal effect): 80%
[25]; CLZ 72 g a.c./ha
  h.e. (herbicidal effect): 77%
[26]; CLZ 72 g a.c./ha
  h.e. (herbicidal effect): 60%
[27]; CLZ 72 g a.c./ha
  h.e. (herbicidal effect): 34%
[28]; CLZ 72 g a.c./ha
  h.e. (herbicidal effect): 66%
[29]
  h.e. (herbicidal effect): 0%

## CON(C)C(=O)Nc1ccc(Br)cc1 [MTB, 3-(4-bromophenyl)-1-methoxy-1-methylurea]
[1]; MTB 1200 g a.c./ha
  h.e. (herbicidal effect): 83%
[2]; MTB 1200 g a.c./ha
  h.e. (herbicidal effect): 81%
[3]; MTB 1200 g a.c./ha
  h.e. (herbicidal effect): 72%
[4]; MTB 1200 g a.c./ha
  h.e. (herbicidal effect): 50%
[5]; MTB 1200 g a.c./ha
  h.e. (herbicidal effect): 35%
[6]; MTB 500 g a.c./ha
  MTB h.e.: 61%
[6]; MTB 1000 g a.c./ha
  MTB h.e.: 69%
[6]; MTB 1500 g a.c./ha
  MTB h.e.: 79%
[7]; MTB 500 g a.c./ha
  MTB h.e.: 18%
[7]; MTB 1000 g a.c./ha
  MTB h.e.: 34%
[7]; MTB 1500 g a.c./ha
  MTB h.e.: 35%
[8]; MTB 600 g a.c./ha
  MTB h.e.: 69.3%
[8]; MTB 1200 g a.c./ha
  MTB h.e.: 93%
[8]; MTB 1800 g a.c./ha
  MTB h.e.: 98.3%
[9]; MTB 600 g a.c./ha
  MTB h.e.: 10%
[9]; MTB 1200 g a.c./ha
  MTB h.e.: 78.3%
[9]; MTB 1800 g a.c./ha
  MTB h.e.: 91%
[10]; MTB 600 g a.c./ha
  MTB h.e.: 20%
[10]; MTB 1200 g a.c./ha
  MTB h.e.: 35%
[10]; MTB 1800 g a.c./ha
  MTB h.e.: 97%
[11]; MTB 400 g a.c./ha
  h.e. (herbicidal effect): 18%
[12]; MTB 400 g a.c./ha
  h.e. (herbicidal effect): 50%
[13]; MTB 400 g a.c./ha
  h.e. (herbicidal effect): 76%
[14]; MTB 400 g a.c./ha
  h.e. (herbicidal effect): 79%
[15]; MTB 400 g a.c./ha
  h.e. (herbicidal effect): 68%
[16]; MTB 400 g a.c./ha
  h.e. (herbicidal effect): 37%
[17]; MTB 400 g a.c./ha
  h.e. (herbicidal effect): 25%
[18]; MTB 1000 g a.c./ha
  h.e. (herbicidal effect): 75%
[19]; MTB 1000 g a.c./ha
  h.e. (herbicidal effect): 28%
[20]; MTB 1000 g a.c./ha
  h.e. (herbicidal effect): 70%
[21]; MTB 1000 g a.c./ha
  h.e. (herbicidal effect): 49%
[22]; MTB 1000 g a.c./ha
  h.e. (herbicidal effect): 66%
[23]; MTB 1000 g a.c./ha
  h.e. (herbicidal effect): 65%
[24]; MTB 1000 g a.c./ha
  h.e. (herbicidal effect): 43%
[25]; MTB 1200 g a.c./ha
  h.e. (herbicidal effect): 43%
[26]; MTB 1200 g a.c./ha
  h.e. (herbicidal effect): 40%
[27]; MTB 1200 g a.c./ha
  h.e. (herbicidal effect): 21%
[28]; MTB 1200 g a.c./ha
  h.e. (herbicidal effect): 31%
[30]
  h.e. (herbicidal effect): 89%
